Laboratory results taken from patent US12157746B2, “Tetrahydro-1H-pyrazino[2,1-a]isoindolylquinoline compounds for the treatment of autoimmune disease” (F. HOFFMANN-LA ROCHE AG, priority 2018, dated 2024).

What follows are molecules tested against T1, human TLR8 (Homo sapiens, UniProt Q9NR97) (assay: HEK293-Blue-hTLR-8 cells assay). Details: HEK293-Blue-hTLR8 cells, R848 stimulation, 20 hrs, SEAP reporter; read-out: HEK/hTLR8 IC50.
T1 sequence (Q9NR97 27-1041): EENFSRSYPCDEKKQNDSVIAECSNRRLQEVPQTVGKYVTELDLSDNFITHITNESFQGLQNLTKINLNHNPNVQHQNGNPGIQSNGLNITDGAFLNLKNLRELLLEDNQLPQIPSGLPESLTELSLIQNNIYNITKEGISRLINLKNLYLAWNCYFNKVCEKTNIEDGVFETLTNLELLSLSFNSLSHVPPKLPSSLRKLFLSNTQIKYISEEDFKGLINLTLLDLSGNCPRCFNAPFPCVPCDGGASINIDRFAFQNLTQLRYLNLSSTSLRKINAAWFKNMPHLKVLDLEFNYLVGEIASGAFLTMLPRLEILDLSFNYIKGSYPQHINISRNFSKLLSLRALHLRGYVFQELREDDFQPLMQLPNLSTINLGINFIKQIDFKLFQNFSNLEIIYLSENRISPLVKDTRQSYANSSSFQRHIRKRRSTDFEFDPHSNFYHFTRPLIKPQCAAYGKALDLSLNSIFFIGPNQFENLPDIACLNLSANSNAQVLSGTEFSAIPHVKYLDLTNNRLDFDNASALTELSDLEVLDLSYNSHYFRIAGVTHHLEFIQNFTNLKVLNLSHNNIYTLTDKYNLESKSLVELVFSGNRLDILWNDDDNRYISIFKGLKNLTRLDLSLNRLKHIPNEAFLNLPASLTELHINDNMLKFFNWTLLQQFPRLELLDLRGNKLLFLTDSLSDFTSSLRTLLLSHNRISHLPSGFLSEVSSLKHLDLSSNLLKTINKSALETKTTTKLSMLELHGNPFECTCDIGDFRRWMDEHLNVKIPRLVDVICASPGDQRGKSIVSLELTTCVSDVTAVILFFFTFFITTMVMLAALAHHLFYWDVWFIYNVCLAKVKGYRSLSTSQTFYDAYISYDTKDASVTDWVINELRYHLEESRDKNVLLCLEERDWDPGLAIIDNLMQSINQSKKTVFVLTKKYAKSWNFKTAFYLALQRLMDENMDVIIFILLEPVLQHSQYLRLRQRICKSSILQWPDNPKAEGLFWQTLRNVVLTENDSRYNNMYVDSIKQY
Assay type: cell-based
Outline: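 Antagonism read out in HEK293-Blue-hTLR8 cells carrying an NF-κB/AP-1-driven SEAP reporter, stimulated with R848 (10 μL of 60 uM stock added) alongside serially diluted compound (1% DMSO), 20 h at 37° C. Supernatant SEAP measured with QUANTI-Blue after 2 h at 37° C, absorbance at 620-655 nm.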

Row | SMILES | IC50
1 | CO[C@H]1CNCC[C@H]1Nc1ccc2c(c1)CN1[C@H](C)CN(c3ccc(C#N)c4ncccc34)C[C@H]21 [Example 66, 5-[(4R,10bS)-8-[[(3S,4R)-3-methoxy-4-piperidyl]amino]-4-methyl-3,4,6,10b-tetrahydro-1H-pyrazino[2,1-a]isoindol-2-yl]quinoline-8-carbonitrile] | < 3.2 nM
2 | CO[C@@H]1CNC[C@@H]1Nc1ccc2c(c1)CN1[C@H](C)CN(c3ccc(C#N)c4ncccc34)C[C@H]21 [Example 60, 5-[(4R,10bS)-8-[[(3S,4R)-4-methoxypyrrolidin-3-yl]amino]-4-methyl-3,4,6,10b-tetrahydro-1H-pyrazino[2,1-a]isoindol-2-yl]quinoline-8-carbonitrile] | < 3.2 nM
3 | C[C@@H]1CN(c2ccc(Cl)c3ncccc23)C[C@@H]2c3ccc(N[C@H]4CNC[C@H]4F)cc3CN12 [Example 79, (4R,10b)-2-(8-chloro-5-quinolyl)-N-[(3S,4R)-4-fluoropyrrolidin-3-yl]-4-methyl-3,4,6,10b-tetrahydro-1H-pyrazino[2,1-a]isoindol-8-amine] | 2.8 nM
4 | C[C@@H]1CN(c2ccc(C#N)c3ncccc23)C[C@@H]2c3ccc(N[C@H]4CNCCOC4)cc3CN12 [Example 56B, 5-[(4R,10bS)-4-methyl-8-[[(6S)-1,4-oxazepan-6-yl]amino]-3,4,6,10b-tetrahydro-1H-pyrazino[2,1-a]isoindol-2-yl]quinoline-8-carbonitrile] | < 3.2 nM
5 | C[C@@H]1CN(c2ccc(C#N)c3ncccc23)C[C@@H]2c3ccc(NC[C@@H]4CNCCO4)cc3CN12 [Example 58, 5-[(4R,10bS)-4-methyl-8-[[(2S)-morpholin-2-yl]methylamino]-3,4,6,10b-tetrahydro-1H-pyrazino[2,1-a]isoindol-2-yl]quinoline-8-carbonitrile] | < 3.2 nM
6 | C[C@@H]1CN(c2ccc(C#N)c3ncsc23)C[C@@H]2c3ccc(N[C@H]4CNC[C@H]4F)cc3CN12 [Example 78, 7-[(4R,10bS)-8-[[(3S,4R)-4-fluoropyrrolidin-3-yl]amino]-4-methyl-3,4,6,10b-tetrahydro-1H-pyrazino[2,1-a]isoindol-2-yl]-1,3-benzothiazole-4-carbonitrile] | 0.4 nM
7 | C[C@@H]1CN(c2ccc(C#N)c3ncccc23)C[C@@H]2c3cc(F)c(N4CC5CNCC(C4)O5)cc3CN12 [Example 85, 5-[(4R,10bS)-9-fluoro-4-methyl-8-(9-oxa-3,7-diazabicyclo[3.3.1]nonan-3-yl)-3,4,6,10b-tetrahydro-1H-pyrazino[2,1-a]isoindol-2-yl]quinoline-8-carbonitrile] | 9.2 nM
8 | [2H]c1ccc2c(N3C[C@@H](C)N4Cc5cc(N6CC7(CNCCO7)C6)ccc5[C@H]4C3)ccc(C#N)c2n1 [Example 90, 5-[(4R,10bS)-4-methyl-8-(5-oxa-2,8-diazaspiro[3.5]nonan-2-yl)-3,4,6,10b-tetrahydro-1H-pyrazino[2,1-a]isoindol-2-yl]-2-deuterio-quinoline-8-carbonitrile] | < 0.3 nM
9 | C[C@@H]1CN(c2ccc(C(F)(F)F)c3nccnc23)C[C@@H]2c3ccc(N[C@H]4CNC[C@H]4F)cc3CN12 [Example 77, (4R,10bS)—N-[(3S,4R)-4-fluoropyrrolidin-3-yl]-4-methyl-2-[8-(trifluoromethyl)quinoxalin-5-yl]-3,4,6,10b-tetrahydro-1H-pyrazino[2,1-a]isoindol-8-amine] | < 3.2 nM
10 | C[C@@H]1CN(c2ccc(C#N)c3ncccc23)C[C@@H]2c3ccc(NC[C@H]4CNCCO4)cc3CN12 [Example 59, 5-[(4R,10bS)-4-methyl-8-[[(2R)-morpholin-2-yl]methylamino]-3,4,6,10b-tetrahydro-1H-pyrazino[2,1-a]isoindol-2-yl]quinoline-8-carbonitrile] | < 3.2 nM
